# Earlier results, collected in patent US20230030915A1, “Pet Food Compositions” (Hill's Pet Nutrition, Inc., priority 2019, published 2023).
# System: piglets
smiles,measurement,setting,value
"C[N+](C)(C)CC(=O)O [Betaine, Glycine betaine]",margin of safety,at 2 000 mg/kg complete feed,below 5
same,maximum supplementation rate at which safe,via feed,2 000 mg/kg complete feed
